According to patent US12318365B2, “Inhibition of dipeptide repeat proteins” (ALS Therapy Development Institute, priority 2019, dated 2025):
No end group written: not given here.

Key:
NSC-34 cells = assay: LDH assay (cytotoxicity) in NSC-34 cells; assay type: cell-based; conditions: for dose dependence of abrogation of GR15-induced cytotoxicity / dose dependence of abrogation of PR15-induced cytotoxicity: dose range of the example
Text: LDH Assay: The LDH assay is a colorimetric assay that measures cell toxicity and death. […] When cells lose membrane integrity, an enzyme found in living cells called lactate dehydrogenase (LDH) is released into the solution surrounding the dying cell. A form of programmed cell death, apoptosis, as well as other forms of cell death also ultimately lead to a cell's membrane being destroyed, resulting in a large release of LDH into the extracellular space. Thus, LDH is an excellent marker not only for necrosis, but for all instances of cell death. In an LDH assay, a sample of the solution surrounding the cell is isolated, and transferred to a plate containing an LDH reaction mixture. This reaction mixture contains a tetrazolium salt intermediate and other reaction constituents that, when exposed to LDH, convert the tetrazolium salt into a colored Formazan product. This Formazan product can be quantified spectrophotometrically. Greater absorbance readings correspond to more cell death.
One row on the top and bottom of the plate, and two columns on either side of the plate, were left without cells and contained culture medium only to minimize experimental well volume evaporation. After plating, cells were incubated for 24 h at 37° C., 5% CO2 prior to DRP and/or PRMT inhibitor addition. At time of DRP/PRMT inhibitor addition, desired doses of DRP for challenge and inhibitor for treatment were achieved by diluting aliquots of each stock in warm culture medium. During experiments where both PRMT inhibitors and DRPs were used, PRMT inhibitors were always applied to wells first, and followed by DRP application. […] Inhibitor toxicity controls were included as wells treated with the desired doses of drug for the experiment, but no DRP. DRP toxicity controls were included as wells only treated with the doses of DRP used for challenge. Once dosed, plates were incubated for 24 h at 37° C., 5% CO2 prior to running the WST-1 or LDH assay endpoints. Additional controls needed for each endpoint are specified in the “WST-1 Assay” and “LDH Assay” sections of these methods.
LDH Assay: Cells were plated and prepared using the steps described in the “Plating NSC-34 and Dosing with DRPs and PRMT Inhibitors” section of these methods. Other controls for this experiment included several sets of wells with only cells in culture medium (one triplicate designated for “untreated,” one triplicate designated for “lysed” positive control), and wells with culture medium only. An additional control added only to the transfer plate at time of testing was 5 μL LDH only. Testing was performed using colorimetric LDH-Cytotoxicity Assay Kit II (Abcam, Cambridge, MA, USA) per manufacturer's instructions. Final read at 450 nm was performed on a SpectraMax M3 Microplate Reader (Molecular Devices, San Jose, CA, USA). Data analysis included calculation of % LDH release using the following equation: […]
Experiments included three replicates per condition. Each experiment was repeated twice (executed three times total).
(§1) The following conditions were plated in triplicate.
Plates were incubated for 24 h at 37° C., 5% CO2. Cells were tested and data were analyzed by LDH assay.
Cells were plated in culture medium in 2 96-well plates at a density of 3.7×10^4 cells per well, and incubated overnight at 37° C., 5% CO2.
as §1
Cells were plated in culture medium in 2 96-well plates at a density of 3.7×10^4 cells per well, and incubated overnight at 37° C., 5% CO2. […]
The following conditions were plated in triplicate. […]

[1] = test system: NSC-34 motor-neuron-like cells; assay: WST-1 assay (dysmetabolism) in NSC-34 cells; assay type: cell-based, Mouse; conditions: for dose dependence of abrogation of GR15-induced dysmetabolism / dose dependence of abrogation of PR15-induced dysmetabolism: dose range of the example
Text: WST-1 Assay: The WST-1 assay is a colorimetric assay that measures cell metabolism. Cells with a healthy metabolism contain mitochondrial dehydrogenase enzymes that remove hydrogen atoms from certain molecules, resulting in a release of energy that the cell can use to perform critical reactions. In the WST-1 assay, a water soluble tetrazolium salt substrate (known as WST-1) is applied, which readily enters cells and their mitochondria upon application. If cells are viable, their mitochondrial dehydrogenase enzymes will catalyze the reaction to convert this WST-1 substrate to a colored product called Formazan. The production of this colored Formazan product by viable cells can be quantified using a spectrophotometer (plate reader). Higher absorbance readings correspond to greater metabolic activity/cell viability.
NSC-34 Cell Culture: NSC-34 cells (Cedarlane Laboratories, Burlington, ON, CA) were cultured in a complete medium consisting of High Glucose Dulbecco's Modified Eagle Medium (Millipore-Sigma, Burlington, MA, USA) supplemented with 10% US-origin fetal bovine serum (Thermo-Fisher Scientific, Cambridge, MA, USA), 1% 200 mM L-Glutamine solution (Thermo-Fisher Scientific, Cambridge, MA, USA), and 1% 10,000 U/mL Penicillin-Streptomycin solution (Thermo-Fisher Scientific, Cambridge, MA, USA). Prior to preparation of NSC-34 complete medium, L-Glutamine and Penicillin-Streptomycin solutions were aliquoted and stored at −20° C., and DMEM/High Glucose was stored at 4°. […] Prepared complete medium, DPBS, and Trypsin were always heated in a 37° C. water bath before use, and stored at 4° C. between uses. Cell counts for plating were performed using a Hausser Scientific cell counting chamber (Thermo-Fisher Scientific, Cambridge, MA, USA).
Proteins were reconstituted in sterile DMSO (Millipore-Sigma, Burlington, MA, USA) to stock concentrations of 10 mM, and stored at 4° C.
After reconstitution using the solvents specified in Table _, stocks were aliquoted to 15-20 μL and immediately stored at −20° C.
One row on the top and bottom of the plate, and two columns on either side of the plate, were left without cells and contained culture medium only to minimize experimental well volume evaporation. After plating, cells were incubated for 24 h at 37° C., 5% CO2 prior to DRP and/or PRMT inhibitor addition. At time of DRP/PRMT inhibitor addition, desired doses of DRP for challenge and inhibitor for treatment were achieved by diluting aliquots of each stock in warm culture medium. During experiments where both PRMT inhibitors and DRPs were used, PRMT inhibitors were always applied to wells first, and followed by DRP application. […] Inhibitor toxicity controls were included as wells treated with the desired doses of drug for the experiment, but no DRP. DRP toxicity controls were included as wells only treated with the doses of DRP used for challenge. […] Additional controls needed for each endpoint are specified in the “WST-1 Assay” and “LDH Assay” sections of these methods.
WST-1 Assay: Cells were plated and prepared using the steps described in the “Plating NSC-34 and Dosing with DRPs and PRMT Inhibitors” section of these methods. Other controls for this experiment included wells containing only cells in culture medium, and culture medium only. At time of testing, culture medium was removed from wells and replaced with a warmed, sterile-filtered solution consisting of DPBS with calcium and magnesium, and 4.5 g/L D-glucose (Millipore-Sigma, Burlington, MA, USA). To wells containing 200 μL DPBS-glucose solution, 20 μL/well WST-1 reagent (Millipore-Sigma, Burlington, MA) was applied and plates were then incubated at 37° C., 5% CO2 for 1 h before plates were read at 450 nm on a SpectraMax M3 Microplate Reader (Molecular Devices, San Jose, CA, USA). Experiments included three replicates per condition.

[2] = 3 μM GR15, 24 h, doses 0.2-20 μM

CC(C)Oc1ccc(-c2c[nH]cc2CN(C)CCO)cc1 [MS094]
abrogation of GR15-induced cytotoxicity (NSC-34 cells; 3 μM GR15, 24 h, over all tested doses (0.2-60 μM)): No doses of negative control MS094 abrogated cytotoxicity | abrogation of PR15-induced cytotoxicity (NSC-34 cells; 3 μM PR15, 24 h, over all tested doses (0.2-60 μM)): No doses of negative control MS094 abrogated cytotoxicity | cytotoxicity of inhibitor alone vs untreated controls (NSC-34 cells; no DRP, doses 10, 30 and 60 μM, at highest 2 doses likely DMSO-related): produced cytotoxicity | abrogation of GR15-induced dysmetabolism ([1]; 3 μM GR15 challenge, 24 h, over all tested doses of the inhibitor): No doses of negative control MS094 abrogated dysmetabolism | abrogation of PR15-induced dysmetabolism ([1]; 3 μM PR15 challenge, 24 h, over all tested doses of the inhibitor): No doses of negative control MS094 abrogated dysmetabolism

CCOCC1(COCC)CCC(c2n[nH]cc2CN(C)CCNC)CC1 [GSK3368715]
abrogation of GR15-induced cytotoxicity (NSC-34 cells; 3 μM GR15, 24 h, dose 1 μM): completely abrogated | dose dependence of abrogation of GR15-induced cytotoxicity (NSC-34 cells; 3 μM GR15, 24 h): dose-dependently abrogated | abrogation of PR15-induced cytotoxicity (NSC-34 cells; 3 μM PR15, 24 h, dose 1 μM): completely abrogated | abrogation of PR15-induced cytotoxicity (NSC-34 cells; 3 μM PR15, 24 h, dose 3 μM): nearly completely abrogated | dose dependence of abrogation of PR15-induced cytotoxicity (NSC-34 cells; 3 μM PR15, 24 h): dose-dependently abrogated | cytotoxicity independently of GR15 and PR15 challenge (NSC-34 cells; no DRP, all doses (0.1-10 μM), likely solvent effects): induced low levels of cytotoxicity | dose dependence of abrogation of GR15-induced dysmetabolism ([1]; 3 μM GR15 challenge, 24 h): dose-dependently abrogated | abrogation of GR15-induced dysmetabolism ([1]; 3 μM GR15 challenge, 24 h, inhibitor doses 1 and 3 μM): completely abrogated | dose dependence of abrogation of PR15-induced dysmetabolism ([1]; 3 μM PR15 challenge, 24 h): dose-dependently abrogated | abrogation of PR15-induced dysmetabolism ([1]; 3 μM PR15 challenge, 24 h, inhibitor doses 1 and 3 μM): completely abrogated

CNCCN(C)Cc1c[nH]nc1-c1ccc(OC2CC(OCCC3CCOCC3)C2)cc1 (centres unmarked) [EPZ020411]
abrogation of GR15-induced cytotoxicity (NSC-34 cells; 3 μM GR15, 24 h, all doses but 0.2 μM (1, 2, 10, 20 μM)): partially abrogated | dose dependence of abrogation of GR15-induced cytotoxicity (NSC-34 cells; 3 μM GR15, 24 h): dose-dependently abrogated | dose with the greatest effect on GR15-induced cytotoxicity (NSC-34 cells; [2]): 20 µM | abrogation of PR15-induced cytotoxicity (NSC-34 cells; 3 μM PR15, 24 h, all doses but 0.2 μM (1, 2, 10, 20 μM)): partially abrogated | dose dependence of abrogation of PR15-induced cytotoxicity (NSC-34 cells; 3 μM PR15, 24 h): dose-dependently abrogated | dose with the greatest effect on PR15-induced cytotoxicity (NSC-34 cells; 3 μM PR15, 24 h, doses 0.2-20 μM): 20 µM | cytotoxicity independently of GR and PR challenge (NSC-34 cells; no DRP, doses 10 and 20 μM): did cause significant cytotoxicity | dose with the greatest abrogation of GR15-induced dysmetabolism [1, 2]: 20 µM | abrogation of GR15-induced dysmetabolism ([1]; 3 μM GR15, 24 h, inhibitor doses 2, 10 and 20 μM): partially abrogated | dose dependence of abrogation of GR15-induced dysmetabolism ([1]; 3 μM GR15 challenge, 24 h): dose-dependently abrogated | abrogation of PR15-induced dysmetabolism ([1]; 3 μM PR15, 24 h, inhibitor doses 10 and 20 μM): completely abrogated | dose dependence of abrogation of PR15-induced dysmetabolism ([1]; 3 μM PR15 challenge, 24 h): dose-dependently abrogated | dysmetabolism independently of GR and PR challenge ([1]; no DRP, doses 10 and 20 μM, not attributable to DMSO): did cause significant dysmetabolism | dysmetabolism independently of GR and PR challenge ([1]; no DRP, other doses tested (0.2, 1, 2 μM)): not at other doses tested

O=C(NC[C@H](O)CN1CCc2ccccc2C1)c1ccnc(NC2CCC2)c1 [GSK591]
dysmetabolism independently of PR15 challenge vs untreated controls ([1]; no DRP, doses 33, 100 and 200 μM): produced dysmetabolism

ADMe-GR15: asymmetrically dimethylated GR15, synthesized protein (Eurogentec) (GRGRGRGRGRGRGRGRGRGRGRGRGRGRGR; also: asymmetric arginine dimethylation, extent/places not given here)
cytotoxicity compared with non-methylated GR15 (NSC-34 cells): consistently producing more cytotoxicity than non-methylated GR15 | dysmetabolism compared with non-methylated GR15 [1]: consistently producing more dysmetabolism than non-methylated GR15
